From ChEMBL document CHEMBL1135397, “Novel 1-hydroxyazole bioisosteres of glutamic acid. Synthesis, protolytic properties, and pharmacology” (J Med Chem, 2002)

What was measured:
[1] = molecular target: Excitatory amino acid transporter 1 (Homo sapiens, UniProt P43003); experiment: Binding affinity for Excitatory amino acid transporter 1 (EAAT-1) in Glu uptake system
[2] = molecular target: Excitatory amino acid transporter 2 (Homo sapiens, UniProt P43004); experiment: Binding affinity for Excitatory amino acid transporter 2 (EAAT-2) in Glu uptake system
Sequence of Excitatory amino acid transporter 2 (P43004 whole entry): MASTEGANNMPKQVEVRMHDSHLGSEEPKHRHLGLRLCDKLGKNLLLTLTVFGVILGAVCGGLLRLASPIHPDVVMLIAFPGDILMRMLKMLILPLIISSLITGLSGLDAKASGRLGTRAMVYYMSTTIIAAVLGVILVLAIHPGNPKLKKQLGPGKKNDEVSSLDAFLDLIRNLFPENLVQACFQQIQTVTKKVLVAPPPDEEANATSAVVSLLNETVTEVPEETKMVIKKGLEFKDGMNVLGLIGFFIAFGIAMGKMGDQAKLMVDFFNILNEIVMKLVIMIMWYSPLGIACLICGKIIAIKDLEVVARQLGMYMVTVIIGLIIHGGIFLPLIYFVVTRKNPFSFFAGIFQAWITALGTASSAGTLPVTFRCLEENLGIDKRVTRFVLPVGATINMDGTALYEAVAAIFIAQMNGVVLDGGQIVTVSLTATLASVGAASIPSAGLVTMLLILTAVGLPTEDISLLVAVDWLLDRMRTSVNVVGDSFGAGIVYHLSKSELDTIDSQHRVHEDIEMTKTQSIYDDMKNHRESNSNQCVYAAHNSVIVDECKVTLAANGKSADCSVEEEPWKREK

[3] = molecular target: T1, Excitatory amino acid transporter 3 (Homo sapiens, UniProt P43005); experiment: Binding affinity for Excitatory amino acid transporter 3 (EAAT-3) in Glu uptake system
T1 sequence (P43005 whole entry): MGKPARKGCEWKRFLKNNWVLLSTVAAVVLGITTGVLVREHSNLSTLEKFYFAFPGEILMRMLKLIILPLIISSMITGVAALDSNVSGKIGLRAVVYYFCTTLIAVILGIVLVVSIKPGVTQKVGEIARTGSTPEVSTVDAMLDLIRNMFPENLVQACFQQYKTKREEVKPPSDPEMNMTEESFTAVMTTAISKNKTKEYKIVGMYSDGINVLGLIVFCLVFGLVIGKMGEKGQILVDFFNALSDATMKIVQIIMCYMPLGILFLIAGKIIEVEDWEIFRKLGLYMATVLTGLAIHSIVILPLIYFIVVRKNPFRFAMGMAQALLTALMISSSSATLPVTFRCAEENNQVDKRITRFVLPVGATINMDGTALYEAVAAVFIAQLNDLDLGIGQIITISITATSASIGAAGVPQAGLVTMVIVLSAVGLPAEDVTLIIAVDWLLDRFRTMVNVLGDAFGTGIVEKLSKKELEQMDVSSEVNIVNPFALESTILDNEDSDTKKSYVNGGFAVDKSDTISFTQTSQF

[4] = Measure of synaptosomal Glu uptake system using [3H]- -D-aspartic acid as radioligand
[5] = molecular target: Glutamate receptor ionotropic, kainate; experiment: Binding affinity for Ionotropic glutamate receptor using [3H]- kainic acid; type: protein-complex assay, Rattus norvegicus
Glutamate NMDA receptor = experiment: Binding affinity for N-methyl-D-aspartate glutamate receptor (NMDA) using [3H]- CPP; type: protein-complex assay, Rattus norvegicus
Rattus norvegicus = species: Rattus norvegicus; experiment: EC50 value was measured in rat cortical wedge preparation; type: functional
[6] = molecular target: Glutamate receptor ionotropic, AMPA (Rattus norvegicus, UniProt P19490+P19491+P19492+P19493)
physchem [7] = experiment: physchem
physchem [8] = experiment: physchem; remark: listed apart in the source
physchem [9] = experiment: physchem; remark: listed apart in the source
[10] = Measure of synaptosomal Glu uptake system using [3H]- -D-aspartic acid as radioligand.; type: functional

Sequence of Excitatory amino acid transporter 1 (P43003 whole entry): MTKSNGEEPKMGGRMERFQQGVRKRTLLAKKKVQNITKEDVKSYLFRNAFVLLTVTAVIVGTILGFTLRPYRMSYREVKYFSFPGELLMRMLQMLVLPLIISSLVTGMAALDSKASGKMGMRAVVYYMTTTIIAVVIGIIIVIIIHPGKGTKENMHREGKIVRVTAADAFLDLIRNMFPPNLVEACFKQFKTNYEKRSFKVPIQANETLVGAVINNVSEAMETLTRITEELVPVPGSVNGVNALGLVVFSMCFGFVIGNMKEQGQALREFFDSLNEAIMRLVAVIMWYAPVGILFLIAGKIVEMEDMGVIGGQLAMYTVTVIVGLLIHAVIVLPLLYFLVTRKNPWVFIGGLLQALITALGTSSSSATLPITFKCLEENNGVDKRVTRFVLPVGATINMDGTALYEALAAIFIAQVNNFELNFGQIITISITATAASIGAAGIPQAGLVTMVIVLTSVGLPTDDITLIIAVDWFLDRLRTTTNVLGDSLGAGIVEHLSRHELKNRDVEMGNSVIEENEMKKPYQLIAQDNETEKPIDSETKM

Compound | IC50 [1] | IC50 [2] | IC50 [3] | IC50 [4] | IC50 [5] | IC50 (Glutamate NMDA receptor) | EC50 (Rattus norvegicus) | IC50 [6] | pKa (physchem [7]) | pKa (physchem [8]) | pKa (physchem [9]) | IC50 [10]
NC(Cc1cncn1O)C(=O)O (stereo not drawn) | > 1000 µM | > 1000 µM | > 1000 µM | > 200 µM | > 100 µM | > 100 µM | > 1000 µM | > 100 µM | – | – | – | –
NC(Cc1ccnn1O)C(=O)O (stereo not drawn) | > 1000 µM | 430 µM | > 1000 µM | > 200 µM | > 100 µM | > 100 µM | 280 µM | 2.7 µM | 9.48 | 5.78 | 1.78 | –
Cc1onc(O)c1CC(N)C(=O)O [(R,S)-AMPA] | > 1000 µM | > 1000 µM | > 1000 µM | – | – | – | – | – | – | 5.12 | 1.94 | > 200 µM
Cc1nnn(O)c1CC(N)C(=O)O (stereo not drawn) | > 1000 µM | 490 µM | > 1000 µM | > 200 µM | 90 µM | > 100 µM | 15 µM | 0.13 µM | 9.24 | 5.07 | 1.48 | –
NC(Cc1conc1O)C(=O)O (stereo not drawn) | 270 µM | 240 µM | > 1000 µM | > 200 µM | > 100 µM | > 100 µM | 900 µM | 0.27 µM | – | – | – | –

Continued, in another order:

IC50 [1] | IC50 [2] | IC50 [3] | IC50 [4] | IC50 [5] | IC50 (Glutamate NMDA receptor) | EC50 (Rattus norvegicus) | IC50 [6] | pKa (physchem [7]) | pKa (physchem [8]) | pKa (physchem [9]) | Compound | IC50 [10]
> 1000 µM | > 1000 µM | > 1000 µM | > 200 µM | > 100 µM | > 100 µM | 586 µM | 2.6 µM | 9.81 | 5.89 | 2.05 | Cc1cnn(O)c1CC(N)C(=O)O (stereo not drawn) | –
> 1000 µM | > 1000 µM | > 1000 µM | > 200 µM | > 100 µM | > 100 µM | > 1000 µM | > 100 µM | – | – | – | Cc1cnc(CC(N)C(=O)O)n1O (stereo not drawn) | –
> 1000 µM | > 1000 µM | > 1000 µM | > 200 µM | > 100 µM | > 100 µM | > 1000 µM | > 100 µM | 10.2 | 8.82 | 2.81 | Cc1ncn(O)c1CC(N)C(=O)O (stereo not drawn) | –
> 1000 µM | > 1000 µM | > 1000 µM | > 200 µM | > 100 µM | > 100 µM | > 1000 µM | > 100 µM | – | – | – | NC(Cc1nccn1O)C(=O)O (stereo not drawn) | –
> 1000 µM | > 1000 µM | > 1000 µM | > 200 µM | > 100 µM | > 100 µM | > 1000 µM | > 100 µM | – | – | – | Cc1ncc(CC(N)C(=O)O)n1O (stereo not drawn) | –
100 µM | 300 µM | > 1000 µM | 93 µM | 47 µM | > 100 µM | > 1000 µM | 0.15 µM | – | – | – | NC(Cc1cnnn1O)C(=O)O (stereo not drawn) | –
